In patent publication US11498946B2, “Pharmaceutical composition for combination therapy for preventing or treating cancer containing tumor-specific drug conjugate and anti-PD-L1 antibody as active ingredients” (KOREA INSTITUTE OF SCIENCE AND TECHNOLOGY, priority 2019, dated 2022):

What was measured:
[1] = tested on: HT-29 colorectal cancer cells; assay: Tumor-treating effect in vivo, tumor volume depending on time, HT-29 tumor animal model; parameters: species or system athymic nude mice; conditions: HT-29 tumor in nude mice; FDOX or DOX 4 mg/kg intravenously, anti-PD-L1 antibody 10 mg/kg intraperitoneally, 3-day intervals
Protocol: The following comparison groups were prepared to compare the efficiency of the test group.
Control group (control): identical to the test group except that no drug was administered.
First comparison group (FDOX): identical to the test group except that only the formulated drug conjugate (FDOX) was administered without the anti-PD-L1 antibody.
Second comparison group (DOX+PD-L1 Ab): identical to the test group except that 4 mg/kg of doxorubicin was administered intravenously instead of the formulated drug conjugate (FDOX).

[2] = parameters: species or system athymic nude mice; conditions: mouse, in vivo
Protocol: For the animal models of the second and third comparison groups, the organs were extracted on day 20 after the drug administration because the animals died within 20 days. After preparing tissues of each extracted organ into 10-μm thick sections, cell death in the organ was evaluated by staining cancerous tissues with annexin V. In addition, the tissues extracted from the major organs (heart, kidney, spleen, lung and liver) were stained with hematoxylin and eosin for investigation of the structural change in the tissues and toxicity.

[3] = In-vivo toxicity by body weight depending on time, and death, in tumor-bearing mice; conditions: HT-29 tumor-bearing nude mice
Protocol: Specifically, athymic nude mice (6-week-old, 20-25 g, male) purchased from Nara Bio (Gyenggi-do, Korea) were used. In order to express colorectal cancers in the male nude mice, a tumor animal model was prepared by subcutaneously inoculating 1×10^7 HT-29 colorectal cancer cells into left thighs. […] The formulated drug conjugate (FDOX) was administered intravenously at a concentration of 4 mg/kg, and the anti-PD-L1 antibody was administered intraperitoneally at a concentration of 10 mg/kg. A test group (FDOX+PD-L1 Ab) was prepared by administering the two therapeutic agents at 3-day intervals.
For the test group, the control group and the first, second and third comparison groups, tumor size was measured at 2-day intervals and calculated as maximum diameter×minimum diameter. In addition, the body weight of each group was measured at 2-day intervals to investigate in-vivo toxicity.

COc1cccc2c1C(=O)c1c(O)c3c(c(O)c1C2=O)C[C@@](O)(C(=O)CO)C[C@@H]3O[C@H]1C[C@H](N)[C@H](O)[C@H](C)O1 [DOX, doxorubicin]
tumor growth (tumor volume depending on time) [1]: could be delayed but could not be completely inhibited
change in the major organs (H&E) [2]: long-term toxicity such as hemorrhage, disruption of tissue structure, enucleation
in-vivo / systemic toxicity [3]: fatal side effect leading to death
